The values below come from patent publication US12685726B2, “Sulfoximines as inhibitors of NaV1.8” (Gruenenthal GmbH, priority 2022, dated 2026).

For this assay, the target named is T1, human NaV 1.8 (Homo sapiens, UniProt Q9Y5Y9).
T1 construct: expressed in transfected cells; host or cells: HEK (recombinant cell line)
In words: Automated whole-cell patch clamp (Qube384) voltage-clamp recordings of sodium currents in HEK-NaV1.8 cell line. The assay is classed as cell-based. The settings on record: read-out: Potency category (human NaV 1.8 IC50). The method in brief:
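HEK cells expressing NaV1.8 with b3, whole-cell automated voltage clamp at room temperature or 19° C.; CsF-based internal, pH 7.4 external. State-dependent (−120 mV, V1/2 4 s, −10 mV test pulses) and 10/20 Hz 40-pulse protocols; ~12 min compound, vehicle-corrected, IC50 by 4-parameter logistic fit.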
(In general: The patch-clamp technique gives a direct electrical read-out from membranes.)

T1 sequence (Q9Y5Y9 whole entry): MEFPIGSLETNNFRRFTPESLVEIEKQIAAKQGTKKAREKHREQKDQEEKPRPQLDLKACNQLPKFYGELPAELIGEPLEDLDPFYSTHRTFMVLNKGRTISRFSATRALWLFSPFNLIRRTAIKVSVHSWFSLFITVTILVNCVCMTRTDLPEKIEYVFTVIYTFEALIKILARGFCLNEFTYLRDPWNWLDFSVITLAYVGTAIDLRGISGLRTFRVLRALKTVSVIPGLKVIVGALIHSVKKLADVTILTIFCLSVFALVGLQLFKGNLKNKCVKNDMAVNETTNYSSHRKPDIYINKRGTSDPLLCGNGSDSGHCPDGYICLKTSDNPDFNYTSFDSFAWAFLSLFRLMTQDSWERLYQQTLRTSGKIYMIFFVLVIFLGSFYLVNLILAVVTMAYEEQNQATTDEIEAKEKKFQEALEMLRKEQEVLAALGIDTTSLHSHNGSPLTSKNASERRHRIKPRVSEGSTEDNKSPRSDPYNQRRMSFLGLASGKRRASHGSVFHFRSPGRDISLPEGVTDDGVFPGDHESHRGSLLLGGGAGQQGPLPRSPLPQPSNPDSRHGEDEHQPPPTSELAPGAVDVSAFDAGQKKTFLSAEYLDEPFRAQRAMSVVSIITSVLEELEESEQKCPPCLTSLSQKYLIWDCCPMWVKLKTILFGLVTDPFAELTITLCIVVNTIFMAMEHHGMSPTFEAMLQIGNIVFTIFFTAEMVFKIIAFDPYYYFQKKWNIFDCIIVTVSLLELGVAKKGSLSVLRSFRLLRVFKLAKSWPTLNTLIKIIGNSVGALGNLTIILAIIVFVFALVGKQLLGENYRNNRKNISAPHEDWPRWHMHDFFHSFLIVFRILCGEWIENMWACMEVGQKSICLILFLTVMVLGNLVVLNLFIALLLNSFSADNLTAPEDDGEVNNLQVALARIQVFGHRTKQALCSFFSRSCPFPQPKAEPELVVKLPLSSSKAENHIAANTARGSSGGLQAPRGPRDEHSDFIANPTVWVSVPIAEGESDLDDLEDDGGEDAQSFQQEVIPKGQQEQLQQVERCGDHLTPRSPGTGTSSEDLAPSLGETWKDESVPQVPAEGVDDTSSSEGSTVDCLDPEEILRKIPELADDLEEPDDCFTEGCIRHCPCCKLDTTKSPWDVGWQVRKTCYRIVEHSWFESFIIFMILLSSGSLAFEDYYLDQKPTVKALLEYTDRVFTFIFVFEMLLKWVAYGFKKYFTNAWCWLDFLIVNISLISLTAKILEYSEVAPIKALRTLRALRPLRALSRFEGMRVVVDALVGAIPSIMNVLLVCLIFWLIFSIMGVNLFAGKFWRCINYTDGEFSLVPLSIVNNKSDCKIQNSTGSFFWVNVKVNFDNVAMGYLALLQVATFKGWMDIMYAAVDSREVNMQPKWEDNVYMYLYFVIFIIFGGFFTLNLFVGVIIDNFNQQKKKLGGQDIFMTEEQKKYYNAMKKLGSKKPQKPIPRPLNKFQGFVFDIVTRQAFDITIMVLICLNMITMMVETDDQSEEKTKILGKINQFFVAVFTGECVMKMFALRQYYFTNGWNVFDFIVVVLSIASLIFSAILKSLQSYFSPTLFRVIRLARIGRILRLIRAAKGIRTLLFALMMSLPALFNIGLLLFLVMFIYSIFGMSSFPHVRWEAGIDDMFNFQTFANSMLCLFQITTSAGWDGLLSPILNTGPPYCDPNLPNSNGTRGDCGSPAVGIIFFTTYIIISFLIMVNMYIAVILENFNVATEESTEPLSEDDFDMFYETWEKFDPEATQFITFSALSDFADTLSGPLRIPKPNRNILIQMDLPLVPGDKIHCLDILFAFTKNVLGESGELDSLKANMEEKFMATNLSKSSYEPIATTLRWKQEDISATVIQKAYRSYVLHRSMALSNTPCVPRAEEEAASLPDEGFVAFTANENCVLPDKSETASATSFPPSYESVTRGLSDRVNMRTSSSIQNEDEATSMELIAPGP

`CC1(Cn2nc(C3CC3)c(C(F)(F)F)c2C(=O)Nc2ccc(F)c(S(C)(=N)=O)c2)CC(F)(F)C1` (single isomer, unassigned) [Example 132b, 3-Cyclopropyl-1-((3,3-difluoro-1-methylcyclobutyl)methyl)-N-(4-fluoro-3-(S-methylsulfonimidoyl)phenyl)-4-(trifluoromethyl)-1H-pyrazole-5-carboxamide]: the IC50 was at most 100 nM.

As to `C[S@@](=N)(=O)c1cc(NC(=O)c2c(C(F)(F)F)c(C3CC3)nn2C[C@]2(C)C[C@H](C(F)(F)F)C2)ccn1` (single isomer, unassigned) [Example 86a, 3-cyclopropyl-1-(((trans)-1-methyl-3-(trifluoromethyl)cyclobutyl)methyl)-N-(2-(S-methylsulfonimidoyl)pyridin-4-yl)-4-(trifluoromethyl)-1H-pyrazole-5-carboxamide], the IC50 is at most 100 nM.

In the case of `CC1(Cn2nc(C3(C#N)CC3)c(C(F)(F)F)c2C(=O)Nc2ccnc(S(C)(=N)=O)c2)CC(F)(F)C1` (single isomer, unassigned) [Example 68b, 3-(1-cyanocyclopropyl)-1-((3,3-difluoro-1-methylcyclobutyl)methyl)-N-(2-(S-methylsulfonimidoyl)pyridin-4-yl)-4-(trifluoromethyl)-1H-pyrazole-5-carboxamide], the IC50 is at most 100 nM.

As to `C[S@](=N)(=O)c1cccc(NC(=O)c2c(C(F)(F)F)c(C3(F)CC3)nn2CC2C[C@H]2C(F)(F)F)c1` (single isomer, unassigned) [Example 134d, 3-(1-Fluorocyclopropyl)-N-(3-(S-methylsulfonimidoyl)phenyl)-4-(trifluoromethyl)-1-(((trans)-2-(trifluoromethyl)cyclopropyl)methyl)-1H-pyrazole-5-carboxamide], the IC50 was at most 100 nM.

In the case of `CS(=N)(=O)c1cc(NC(=O)c2c(C(F)(F)F)c(C3CC3)nn2CC2CCC23CNC3)ccn1` (single isomer, unassigned) [Example 153b, 1-((2-Azaspiro[3.3]heptan-5-yl)methyl)-3-cyclopropyl-N-(2-(S-methylsulfonimidoyl)pyridin-4-yl)-4-(trifluoromethyl)-1H-pyrazole-5-carboxamide], the IC50 is 1000 to 10000 nM.

Turning to `CC1(Cn2nc(C3(F)CC3)c(C(F)F)c2C(=O)Nc2cccc(S(C)(=N)=O)c2)CC(F)(F)C1` (single isomer, unassigned) [Example 135b, 1-((3,3-Difluoro-1-methylcyclobutyl)methyl)-4-(difluoromethyl)-3-(1-fluorocyclopropyl)-N-(3-(S-methylsulfonimidoyl)phenyl)-1H-pyrazole-5-carboxamide], the IC50 was at most 100 nM.

For `C[C@]1(Cn2nc(C3CC3)c(C(F)(F)F)c2C(=O)Nc2ccnc([S@@](C)(=N)=O)c2)CC(F)(F)C12CC2` (single isomer, unassigned) [Example 92b, 3-cyclopropyl-1-((6,6-difluoro-4-methylspiro[2.3]hexan-4-yl)methyl)-N-(2-(S-methylsulfonimidoyl)pyridin-4-yl)-4-(trifluoromethyl)-1H-pyrazole-5-carboxamide], the IC50 was at most 100 nM.

For the compound `CC1(Cn2nc(C(C)(C)C)c(C(F)(F)F)c2C(=O)Nc2ccnc(S(C)(=N)=O)c2)CC(F)(F)C1` (single isomer, unassigned) [Example 143b, 3-(Tert-butyl)-1-((3,3-difluoro-1-methylcyclobutyl)methyl)-N-(2-(S-methylsulfonimidoyl)pyridin-4-yl)-4-(trifluoromethyl)-1H-pyrazole-5-carboxamide], the IC50 was at most 100 nM.

On to `CC1(Cn2nc(C3(C(F)F)CC3)c(C(F)(F)F)c2C(=O)Nc2ccnc(S(C)(=N)=O)c2)CC(F)(F)C1` (single isomer, unassigned) [Example 145b, 1-((3,3-Difluoro-1-methylcyclobutyl)methyl)-3-(1-(difluoromethyl)cyclopropyl)-N-(2-(S-methylsulfonimidoyl)pyridin-4-yl)-4-(trifluoromethyl)-1H-pyrazole-5-carboxamide], for which the IC50 was at most 100 nM.

For the compound `Cc1c(C(C)(F)F)nn(CC23CC(C(F)(F)F)(C2)C3)c1C(=O)Nc1ccnc(S(C)(=N)=O)c1` (single isomer, unassigned) [Example 15b, 3-(1,1-difluoroethyl)-4-methyl-N-(2-(S-methylsulfonimidoyl)pyridin-4-yl)-1-((3-(trifluoromethyl)bicyclo[1.1.1]pentan-1-yl)methyl)-1H-pyrazole-5-carboxamide], the IC50 is at most 100 nM.

Turning to `CC1(Cn2nc(C3(F)CC3)c(C(F)(F)F)c2C(=O)Nc2cccc(S(C)(=O)=NC(=O)C3COC3)c2)CC(F)(F)C1` (single isomer, unassigned) [Example 150b, 1-((3,3-Difluoro-1-methylcyclobutyl)methyl)-3-(1-fluorocyclopropyl)-N-(3-(S-methyl-N-(oxetane-3-carbonyl)sulfonimidoyl)phenyl)-4-(trifluoromethyl)-1H-pyrazole-5-carboxamide], the IC50 is at most 100 nM.

As to `CC1(Cn2nc(C3(F)CC3)c(C(F)F)c2C(=O)Nc2ccc(F)c(S(C)(=N)=O)c2)CC(F)(F)C1` (single isomer, unassigned) [Example 133b, 1-((3,3-Difluoro-1-methylcyclobutyl)methyl)-4-(difluoromethyl)-N-(4-fluoro-3-(S-methylsulfonimidoyl)phenyl)-3-(1-fluorocyclopropyl)-1H-pyrazole-5-carboxamide], the IC50 is at most 100 nM.

With `CS(=N)(=O)c1cc(NC(=O)c2c(C(F)(F)F)c(C3CC3)nn2CC2C3(CC3)C23CC3)ccn1` (single isomer, unassigned) [Example 80b, 3-cyclopropyl-1-(dispiro[2.0.24.13]heptan-7-ylmethyl)-N-(2-(S-methylsulfonimidoyl)pyridin-4-yl)-4-(trifluoromethyl)-1H-pyrazole-5-carboxamide], the IC50 was at most 100 nM.

For the compound `Cc1c(C(C)(F)F)nn(CC2(C)CCC(F)(F)CC2)c1C(=O)Nc1ccnc(S(C)(=N)=O)c1` (single isomer, unassigned) [Example 11b, 1-((4,4-difluoro-1-methylcyclohexyl)methyl)-3-(1,1-difluoroethyl)-4-methyl-N-(2-(S-methylsulfonimidoyl)pyridin-4-yl)-1H-pyrazole-5-carboxamide], the IC50 was at most 100 nM.

`CS(=N)(=O)c1cc(NC(=O)c2c(C(F)(F)F)c(C3CC3)nn2C[C@H]2CCC(F)(F)C2)ccn1` (single isomer, unassigned) [Example 17a]: the half-maximal inhibitory concentration (IC50) was at most 100 nM.

On to `CC1(Cn2nc(C3CC3)c(C(F)(F)F)c2C(=O)Nc2cnnc(S(C)(=N)=O)c2)CC(F)(F)C1` (single isomer, unassigned) [Example 47b, 3-cyclopropyl-1-((3,3-difluoro-1-methylcyclobutyl)methyl)-N-(6-(S-methylsulfonimidoyl)pyridazin-4-yl)-4-(trifluoromethyl)-1H-pyrazole-5-carboxamide], for which the IC50 is at most 100 nM.

For `CC1(Cn2nc(C34CC(F)(C3)C4)c(C(F)F)c2C(=O)Nc2ccc(F)c(S(C)(=N)=O)c2)CC(F)(F)C1` (single isomer, unassigned) [Example 138b, 1-((3,3-Difluoro-1-methylcyclobutyl)methyl)-4-(difluoromethyl)-N-(4-fluoro-3-(S-methylsulfonimidoyl)phenyl)-3-(3-fluorobicyclo[1.1.1]pentan-1-yl)-1H-pyrazole-5-carboxamide], the half-inhibitory concentration (IC50) was at most 100 nM.

On to `CC1(Cn2nc(C3CC3)c(C(F)(F)F)c2C(=O)Nc2cncc(S(C)(=N)=O)c2)CC(F)(F)C1` (single isomer, unassigned) [Example 46a, 3-cyclopropyl-1-((3,3-difluoro-1-methylcyclobutyl)methyl)-N-(5-(S-methylsulfonimidoyl)pyridin-3-yl)-4-(trifluoromethyl)-1H-pyrazole-5-carboxamide], for which the IC50 is at most 100 nM.

As for `CC1(Cn2nc(C34CC(F)(C3)C4)c(C(F)(F)F)c2C(=O)Nc2ccnc(S(C)(=N)=O)c2)CC(F)(F)C1` (single isomer, unassigned) [Example 110b, 1-((3,3-Difluoro-1-methylcyclobutyl)methyl)-3-(3-fluorobicyclo[1.1.1]pentan-1-yl)-N-(2-(S-methylsulfonimidoyl)pyridin-4-yl)-4-(trifluoromethyl)-1H-pyrazole-5-carboxamide], the IC50 is at most 100 nM.

Consider `CC1(Cn2nc(C(C)(C)F)c(C(F)(F)F)c2C(=O)Nc2ccnc(S(C)(=N)=O)c2)CC(F)(F)C1` (single isomer, unassigned) [Example 148a, 1-((3,3-Difluoro-1-methylcyclobutyl)methyl)-3-(2-fluoropropan-2-yl)-N-(2-(S-methylsulfonimidoyl)pyridin-4-yl)-4-(trifluoromethyl)-1H-pyrazole-5-carboxamide], for which the IC50 is at most 100 nM.

Turning to `CS(=N)(=O)c1cc(NC(=O)c2c(C(F)(F)F)c(C3CC3)nn2CC23CCC(F)(CC2)C3)ccn1` (single isomer, unassigned) [Example 106a, 3-cyclopropyl-1-((4-fluorobicyclo[2.2.1]heptan-1-yl)methyl)-N-(2-(S-methylsulfonimidoyl)pyridin-4-yl)-4-(trifluoromethyl)-1H-pyrazole-5-carboxamide], the IC50 was at most 100 nM.

On to `CS(=N)(=O)c1cc(NC(=O)c2c(C(F)(F)F)c(C3CC3)nn2CC23CC2CC(F)(F)C3)ccn1` (single isomer, unassigned) [Example 95b, 3-Cyclopropyl-1-((3,3-difluorobicyclo[3.1.0]hexan-1-yl)methyl)-N-(2-(S-methylsulfonimidoyl)pyridin-4-yl)-4-(trifluoromethyl)-1H-pyrazole-5-carboxamide], for which the IC50 was at most 100 nM.

In the case of `CC1(Cn2nc(C34CC(F)(C3)C4)c(C(F)(F)F)c2C(=O)Nc2cccc(S(C)(=N)=O)c2)CC(F)(F)C1` (single isomer, unassigned) [Example 111b, 1-((3,3-difluoro-1-methylcyclobutyl)methyl)-3-(3-fluorobicyclo[1.1.1]pentan-1-yl)-N-(3-(S-methylsulfonimidoyl)phenyl)-4-(trifluoromethyl)-1H-pyrazole-5-carboxamide], the IC50 is at most 100 nM.

In general, IC50 refers to the concentration at which inhibition is half-maximal.
